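GI50 marks 50% less growth. TGI: concentration producing complete growth inhibition.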
Experiments:
Test in all cases: NCI anticancer screen, dose series, 384-well format
[1] = tested on: 786-0 renal
[2] = tested on: A498 renal
[3] = tested on: A549 NSCLC
[4] = tested on: ACHN renal
[5] = tested on: BT-549 breast
[6] = tested on: CAKI-1 renal
[7] = tested on: CCRF-CEM leukemia
[8] = tested on: COLO 205 colon
[9] = tested on: DU-145 prostate
[10] = tested on: EKVX NSCLC
[11] = tested on: HCC-2998 colon
[12] = tested on: HCT-15 colon
[13] = tested on: HL-60(TB) leukemia
[14] = tested on: HOP-62 NSCLC
[15] = tested on: HOP-92 NSCLC
[16] = tested on: HS 578T breast
[17] = tested on: HT29 colon
[18] = tested on: IGROV1 ovarian
[19] = tested on: K-562 leukemia
[20] = tested on: KM12 colon
[21] = tested on: LOX IMVI melanoma
[22] = tested on: M14 melanoma
[23] = tested on: MALME-3M melanoma
[24] = tested on: MCF7 breast
[25] = tested on: MDA-MB-231 breast
[26] = tested on: MDA-MB-435 melanoma
[27] = tested on: MDA-MB-468 breast
[28] = tested on: MOLT-4 leukemia
[29] = tested on: NCI-H226 lung
[30] = tested on: NCI-H23 lung
[31] = tested on: NCI-H322M lung
[32] = tested on: NCI-H460 NSCLC
[33] = tested on: NCI-H522 lung
[34] = tested on: NCI/ADR-RES ovarian
[35] = tested on: OVCAR-3 ovarian
[36] = tested on: OVCAR-4 ovarian
[37] = tested on: OVCAR-5 ovarian
[38] = tested on: OVCAR-8 ovarian
[39] = tested on: PC-3 prostate
[40] = tested on: RPMI-8226 leukemia
[41] = tested on: RXF 393 renal
[42] = tested on: SF-268 CNS
[43] = tested on: SF-295 CNS
[44] = tested on: SF-539 CNS
[45] = tested on: SK-MEL-28 melanoma
[46] = tested on: SK-MEL-5 melanoma
[47] = tested on: SK-OV-3 ovarian
[48] = tested on: SN12C renal
[49] = tested on: SNB-19 CNS
[50] = tested on: SNB-75 CNS
[51] = tested on: SR leukemia
[52] = tested on: SW-620 colon
[53] = tested on: T-47D breast
[54] = tested on: TK-10 renal
[55] = tested on: UACC-257 melanoma
[56] = tested on: UACC-62 melanoma
[57] = tested on: UO-31 renal
[58] = tested on: HCT-116 colon
[59] = tested on: U251 glioblastoma

Q: What does the source list for `CCOCC1(COCC)CCC(c2[nH]ncc2CN(C)CCNC)CC1`?
A: GI50 [1]: 10.4 µM; TGI [1]: > 100 µM; GI50 [2]: 5.94 µM; TGI [2]: > 100 µM; GI50 [3]: 18.1 µM; TGI [3]: > 100 µM; GI50 [4]: 2.03 µM; TGI [4]: > 100 µM; GI50 [5]: 32.7 µM; TGI [5]: > 100 µM; GI50 [6]: 3.69 µM; TGI [6]: > 100 µM; GI50 [7]: 53.3 µM; TGI [7]: > 100 µM; GI50 [8]: 20.5 µM; TGI [8]: > 100 µM; GI50 [9]: > 100 µM; TGI [9]: > 100 µM; GI50 [10]: > 100 µM; TGI [10]: > 100 µM; GI50 [11]: 16.3 µM; TGI [11]: 38.3 µM; GI50 [12]: 18.6 µM; TGI [12]: > 100 µM; GI50 [13]: 0.123 µM; TGI [13]: 2.68 µM; GI50 [14]: 71 µM; TGI [14]: > 100 µM; GI50 [15]: 35.2 µM; TGI [15]: > 100 µM; GI50 [16]: > 100 µM; TGI [16]: > 100 µM; GI50 [17]: 10.7 µM; TGI [17]: 35.8 µM; GI50 [18]: 2.77 µM; TGI [18]: > 100 µM; GI50 [19]: 4.11 µM; TGI [19]: > 100 µM; GI50 [20]: > 100 µM; TGI [20]: > 100 µM; GI50 [21]: 29.6 µM; TGI [21]: > 100 µM; GI50 [22]: 17.6 µM; TGI [22]: 44.7 µM; GI50 [23]: 8.61 µM; TGI [23]: 36.3 µM; GI50 [24]: 29.9 µM; TGI [24]: > 100 µM; GI50 [25]: 42.5 µM; TGI [25]: > 100 µM; GI50 [26]: 58.7 µM; TGI [26]: > 100 µM; GI50 [27]: 1.81 µM; TGI [27]: 35.6 µM; GI50 [28]: 20 µM; TGI [28]: > 100 µM; GI50 [29]: > 100 µM; TGI [29]: > 100 µM; GI50 [30]: > 100 µM; TGI [30]: > 100 µM; GI50 [31]: > 100 µM; TGI [31]: > 100 µM; GI50 [32]: 8.56 µM; TGI [32]: > 100 µM; GI50 [33]: 96.8 µM; TGI [33]: > 100 µM; GI50 [34]: > 100 µM; TGI [34]: > 100 µM; GI50 [35]: 1.75 µM; TGI [35]: > 100 µM; GI50 [36]: > 100 µM; TGI [36]: > 100 µM; GI50 [37]: 28.5 µM; TGI [37]: > 100 µM; GI50 [38]: > 100 µM; TGI [38]: > 100 µM; GI50 [39]: > 100 µM; TGI [39]: > 100 µM; GI50 [40]: 2.52 µM; TGI [40]: 57.4 µM; GI50 [41]: > 100 µM; TGI [41]: > 100 µM; GI50 [42]: > 100 µM; TGI [42]: > 100 µM; GI50 [43]: 6.65 µM; TGI [43]: > 100 µM; GI50 [44]: 90.4 µM; TGI [44]: > 100 µM; GI50 [45]: 11.3 µM; TGI [45]: 29.3 µM; GI50 [46]: 11.5 µM; TGI [46]: 34.5 µM; GI50 [47]: 47.1 µM; TGI [47]: > 100 µM; GI50 [48]: 64.8 µM; TGI [48]: > 100 µM; GI50 [49]: > 100 µM; TGI [49]: > 100 µM; GI50 [50]: > 100 µM; TGI [50]: > 100 µM; GI50 [51]: 0.386 µM; TGI [51]: 9.85 µM; GI50 [52]: > 100 µM; TGI [52]: > 100 µM; GI50 [53]: 27.3 µM; TGI [53]: > 100 µM; GI50 [54]: 43.4 µM; TGI [54]: > 100 µM; GI50 [55]: 14.8 µM; TGI [55]: 30.2 µM; GI50 [56]: 12.6 µM; TGI [56]: 33.3 µM; GI50 [57]: > 100 µM; TGI [57]: > 100 µM

Q: What does the source list for `O=C(Nc1ccc(Oc2ccc(F)cc2)cc1)[C@@H]1C[C@@H](Cc2ccc(F)cc2)CN1C(=O)Cn1ccnn1`?
A: GI50 [1]: 4.65 µM; TGI [1]: 16.3 µM; GI50 [2]: 5.24 µM; TGI [2]: 16.5 µM; GI50 [3]: 4.06 µM; TGI [3]: 19.2 µM; GI50 [4]: 4.88 µM; TGI [4]: 17.4 µM; GI50 [5]: 7.1 µM; TGI [5]: 18.7 µM; GI50 [6]: 12.1 µM; TGI [6]: 25.1 µM; GI50 [7]: 2.64 µM; TGI [7]: 5.92 µM; GI50 [8]: 8.04 µM; TGI [8]: 21.4 µM; GI50 [9]: 10.8 µM; TGI [9]: 26.7 µM; GI50 [10]: 11 µM; TGI [10]: 24.9 µM; GI50 [11]: 4.57 µM; TGI [11]: 14.6 µM; GI50 [58]: 5.34 µM; TGI [58]: 16.7 µM; GI50 [12]: 6.73 µM; TGI [12]: 21.9 µM; GI50 [13]: 2.44 µM; TGI [13]: 4.34 µM; GI50 [14]: 6.4 µM; TGI [14]: 18.2 µM; GI50 [15]: 3.72 µM; TGI [15]: 12.1 µM; GI50 [16]: 7.78 µM; TGI [16]: 19.6 µM; GI50 [17]: 3.46 µM; TGI [17]: 11.7 µM; GI50 [18]: 7.92 µM; TGI [18]: 20.8 µM; GI50 [19]: 4.7 µM; TGI [19]: 14.9 µM; GI50 [20]: 8.19 µM; TGI [20]: 20.8 µM; GI50 [21]: 5.29 µM; TGI [21]: 17.1 µM; GI50 [22]: 7.23 µM; TGI [22]: 19.8 µM; GI50 [23]: 6.92 µM; TGI [23]: 19.2 µM; GI50 [24]: 4.1 µM; TGI [24]: 14.5 µM; GI50 [25]: 13.5 µM; TGI [25]: 27.1 µM; GI50 [26]: 13.3 µM; TGI [26]: 26.3 µM; GI50 [27]: 6.95 µM; TGI [27]: 18.8 µM; GI50 [28]: 2.02 µM; TGI [28]: 3.78 µM; GI50 [29]: 9.85 µM; TGI [29]: 21.7 µM; GI50 [30]: 15.7 µM; TGI [30]: 29.9 µM; GI50 [31]: 14.8 µM; TGI [31]: 30.1 µM; GI50 [32]: 5.39 µM; TGI [32]: 16.8 µM; GI50 [33]: 6.56 µM; TGI [33]: 18.8 µM; GI50 [34]: 16.1 µM; TGI [34]: 36.7 µM; GI50 [35]: 7.5 µM; TGI [35]: 19.5 µM; GI50 [36]: 11.9 µM; TGI [36]: 26.4 µM; GI50 [37]: 14.7 µM; TGI [37]: 28.3 µM; GI50 [38]: 11.1 µM; TGI [38]: 23.4 µM; GI50 [39]: 4.69 µM; TGI [39]: 15 µM; GI50 [40]: 3.81 µM; TGI [40]: 9.88 µM; GI50 [41]: 3.77 µM; TGI [41]: 11.4 µM; GI50 [42]: 2.52 µM; TGI [42]: 7.96 µM; GI50 [43]: 7.16 µM; TGI [43]: 19.5 µM; GI50 [44]: 10.9 µM; TGI [44]: 23 µM; GI50 [45]: 15.8 µM; TGI [45]: 29.4 µM; GI50 [46]: 8.64 µM; TGI [46]: 21 µM; GI50 [47]: 12.7 µM; TGI [47]: 28.1 µM; GI50 [48]: 12.9 µM; TGI [48]: 25.8 µM; GI50 [49]: 11.6 µM; TGI [49]: 25.9 µM; GI50 [50]: 7.44 µM; TGI [50]: 20.7 µM; GI50 [52]: 16.1 µM; TGI [52]: 29.8 µM; GI50 [53]: 3.64 µM; TGI [53]: 10 µM; GI50 [54]: 11.1 µM; TGI [54]: 24.2 µM; GI50 [59]: 4.94 µM; TGI [59]: 16.3 µM; GI50 [55]: 11.6 µM; TGI [55]: 23.9 µM; GI50 [56]: 13.2 µM; TGI [56]: 26.1 µM; GI50 [57]: 10.8 µM; TGI [57]: 22.9 µM
